# Laboratory results taken from the supplement of paper PMC10307832.
# Key:
# Assay in all cases: relative viability (nuclei count vs DMSO), 5 days (fraction); higher = more cells survive
# COR-L 105 = system: COR-L 105
# How it was run: (§1)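 Relative viability divides the nuclei count in treated wells by that in vehicle wells. Lung cancer cell lines were seeded in 1536-well plates, dosed by pin tool the next day, and fixed and stained after 5 days in one step with final 0.05% Triton X-100, 1% formaldehyde and 1 ug/ml Hoechst. Dosing was a single drug or a fixed anchor-drug dose plus five library-drug doses (not always all listed) in √10 steps, and values are medians of duplicate plates imaged at 4×.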
# COR-L23 = system: COR-L23
# How it was run: as §1
# EKVX = system: EKVX
# How it was run: as §1
# HARA = system: HARA
# How it was run: as §1
# HOP-62 = system: HOP-62
# How it was run: as §1
# NCI-H1355 = system: NCI-H1355
# How it was run: as §1
# NCI-H1395 = system: NCI-H1395
# How it was run: as §1
# NCI-H1734 = system: NCI-H1734
# How it was run: as §1
# NCI-H1755 = system: NCI-H1755
# How it was run: as §1
# NCI-H1793 = system: NCI-H1793
# How it was run: as §1
# NCI-H1993 = system: NCI-H1993
# How it was run: as §1
# NCI-H2009 = system: NCI-H2009
# How it was run: as §1
# NCI-H2170 = system: NCI-H2170
# How it was run: as §1
# NCI-H2228 = system: NCI-H2228
# How it was run: as §1
# NCI-H2342 = system: NCI-H2342
# How it was run: as §1
# NCI-H2347 = system: NCI-H2347
# How it was run: as §1
# NCI-H322M = system: NCI-H322M
# How it was run: as §1
# NCI-H358 = system: NCI-H358
# How it was run: as §1
# NCI-H522 = system: NCI-H522
# How it was run: as §1
# NCI-H647 = system: NCI-H647
# How it was run: as §1
# NCI-H838 = system: NCI-H838
# How it was run: as §1
# PC-14 = system: PC-14
# How it was run: as §1
# SK-MES-1 = system: SK-MES-1
# How it was run: as §1
# UMC-11 = system: UMC-11
# How it was run: as §1
smiles,measurement,setting,value
CC(C)Oc1cc(Nc2nc(N[C@@H](C)c3ccc(F)cn3)ncc2Cl)n[nH]1 [AZ23] + CCNC(=O)c1noc(-c2cc(C(C)C)c(O)cc2O)c1-c1ccc(CN2CCOCC2)cc1 [Luminespib] (partner 0.01 µM),relative viability,COR-L 105; first compound 0.01 µM,0.83
same,relative viability,COR-L 105; first compound 0.03162 µM,0.872
same,relative viability,COR-L 105; first compound 0.3162 µM,0.731
same,relative viability,COR-L23; first compound 0.01 µM,0.405
same,relative viability,COR-L23; first compound 0.03162 µM,0.814
same,relative viability,COR-L23; first compound 0.3162 µM,0.869
same,relative viability,EKVX; first compound 0.01 µM,0.861
same,relative viability,EKVX; first compound 0.03162 µM,0.84
same,relative viability,EKVX; first compound 0.3162 µM,0.924
same,relative viability,HARA; first compound 0.03162 µM,0.822
same,relative viability,HARA; first compound 0.3162 µM,1.34
same,relative viability,HOP-62; first compound 0.01 µM,0.841
same,relative viability,HOP-62; first compound 0.03162 µM,0.981
same,relative viability,HOP-62; first compound 0.3162 µM,1.01
same,relative viability,NCI-H1355; first compound 0.01 µM,0.671
same,relative viability,NCI-H1355; first compound 0.03162 µM,0.768
same,relative viability,NCI-H1355; first compound 0.3162 µM,0.715
same,relative viability,NCI-H1395; first compound 0.03162 µM,0.658
same,relative viability,NCI-H1395; first compound 0.3162 µM,0.771
same,relative viability,NCI-H1734; first compound 0.01 µM,0.184
same,relative viability,NCI-H1734; first compound 0.03162 µM,0.181
same,relative viability,NCI-H1734; first compound 0.3162 µM,0.169
same,relative viability,NCI-H1755; first compound 0.01 µM,0.293
same,relative viability,NCI-H1755; first compound 0.03162 µM,0.605
same,relative viability,NCI-H1755; first compound 0.3162 µM,0.634
same,relative viability,NCI-H1793; first compound 0.01 µM,0.158
same,relative viability,NCI-H1793; first compound 0.03162 µM,0.194
same,relative viability,NCI-H1793; first compound 0.3162 µM,0.143
same,relative viability,NCI-H1993; first compound 0.01 µM,0.785
same,relative viability,NCI-H1993; first compound 0.03162 µM,0.881
same,relative viability,NCI-H1993; first compound 0.3162 µM,0.854
same,relative viability,NCI-H2009; first compound 0.01 µM,1.05
same,relative viability,NCI-H2009; first compound 0.03162 µM,1.17
same,relative viability,NCI-H2009; first compound 0.3162 µM,1.1
same,relative viability,NCI-H2170; first compound 0.01 µM,1.01
same,relative viability,NCI-H2170; first compound 0.03162 µM,0.739
same,relative viability,NCI-H2170; first compound 0.3162 µM,0.822
same,relative viability,NCI-H2228; first compound 0.01 µM,0.179
same,relative viability,NCI-H2228; first compound 0.03162 µM,0.141
same,relative viability,NCI-H2228; first compound 0.3162 µM,0.0999
same,relative viability,NCI-H2342; first compound 0.01 µM,0.658
same,relative viability,NCI-H2342; first compound 0.03162 µM,0.679
same,relative viability,NCI-H2342; first compound 0.3162 µM,0.718
same,relative viability,NCI-H2347; first compound 0.01 µM,0.486
same,relative viability,NCI-H2347; first compound 0.03162 µM,0.62
same,relative viability,NCI-H2347; first compound 0.3162 µM,0.41
same,relative viability,NCI-H322M; first compound 0.03162 µM,0.879
same,relative viability,NCI-H322M; first compound 0.3162 µM,1.08
same,relative viability,NCI-H358; first compound 0.01 µM,0.416
same,relative viability,NCI-H358; first compound 0.03162 µM,0.395
same,relative viability,NCI-H358; first compound 0.3162 µM,0.349
same,relative viability,NCI-H522; first compound 0.01 µM,1.06
same,relative viability,NCI-H522; first compound 0.03162 µM,1.08
same,relative viability,NCI-H522; first compound 0.3162 µM,1.15
same,relative viability,NCI-H647; first compound 0.01 µM,0.125
same,relative viability,NCI-H647; first compound 0.03162 µM,0.107
same,relative viability,NCI-H647; first compound 0.3162 µM,0.149
same,relative viability,NCI-H838; first compound 0.01 µM,0.229
same,relative viability,NCI-H838; first compound 0.03162 µM,0.278
same,relative viability,NCI-H838; first compound 0.3162 µM,0.345
same,relative viability,PC-14; first compound 0.03162 µM,0.21
same,relative viability,PC-14; first compound 0.3162 µM,0.21
same,relative viability,SK-MES-1; first compound 0.03162 µM,0.834
same,relative viability,SK-MES-1; first compound 0.3162 µM,0.952
same,relative viability,UMC-11; first compound 0.01 µM,1.15
same,relative viability,UMC-11; first compound 0.03162 µM,1.05
same,relative viability,UMC-11; first compound 0.3162 µM,0.988
